Assays:
[1] = system: U-46619 (TXA2 mimic)-induced broncho-constriction; test: Inhibitory effect on U-46619 (TXA2 mimic)-induced broncho-constriction in guinea pig; assay type: in vivo; settings: Cavia porcellus, iv; 0.31 mg/kg i.v., 9 minutes before U-46619; ** p < 0.01
[2] = target: T1, 5-Lipoxygenase (Rattus norvegicus, UniProt P12527); test: 5-Lipoxygenase inhibitory activity (5-HETE production in RBL-1 cells); assay type: cell-based; settings: read-out: Inhibitory effect on 5-HETE production (%)
T1 construct: RBL-1 cells (rat basophilic leukemia cells); endogenous in cells; host or cells: RBL-1 (rat basophilic leukemia cells)
T1 sequence (P12527 1-673): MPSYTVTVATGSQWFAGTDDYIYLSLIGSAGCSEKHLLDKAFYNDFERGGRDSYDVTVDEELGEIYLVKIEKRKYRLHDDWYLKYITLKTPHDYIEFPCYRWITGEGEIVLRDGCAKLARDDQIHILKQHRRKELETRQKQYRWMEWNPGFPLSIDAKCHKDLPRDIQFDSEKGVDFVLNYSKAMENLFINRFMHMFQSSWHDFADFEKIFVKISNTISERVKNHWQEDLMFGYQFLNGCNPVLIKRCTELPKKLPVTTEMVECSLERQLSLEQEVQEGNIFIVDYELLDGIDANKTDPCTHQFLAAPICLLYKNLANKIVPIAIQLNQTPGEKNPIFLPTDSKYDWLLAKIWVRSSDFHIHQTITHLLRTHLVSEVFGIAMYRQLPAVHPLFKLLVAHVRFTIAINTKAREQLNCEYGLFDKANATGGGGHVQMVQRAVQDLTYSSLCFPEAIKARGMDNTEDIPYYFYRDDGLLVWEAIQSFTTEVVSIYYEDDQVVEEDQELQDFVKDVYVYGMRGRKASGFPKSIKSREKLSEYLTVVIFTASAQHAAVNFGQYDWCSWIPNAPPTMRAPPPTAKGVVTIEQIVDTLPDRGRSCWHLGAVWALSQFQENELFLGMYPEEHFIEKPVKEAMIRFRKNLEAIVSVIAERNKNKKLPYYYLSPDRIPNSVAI
Procedure: 5-Lipoxygenase inhibitory activity
Method: 10^7 RBL-1 cells (rat basophilic leukemia cells) were suspended in 0.5 ml of MCM (mast cell medium), and test solutions (made up of 0.5 ml of MCM, 50 μg of arachidonic acid, 10 μg of A-23187 (calcium ionophore) and 1 μM, 0.01 μM and 0.001 μM as the final concentration of the phenol compound, respectively) prepared previously were added respectively to the suspension, followed by reaction at 37° C. for 20 minutes. After the conclusion of the reaction, 4 ml of ethanol and 1,4-dimethoxy-2-methyl-3-(3-methoxypropyl)naphthalene as the internal reference drug were added to the reaction solution, and the mixture was shaken thoroughly and allowed to stand at room temperature for 10 minutes. Then, it was centrifuged (2000 r.p.m.) for 10 minutes, and the supernatant fluid was separated and concentrated to dryness under reduced pressure. 0.5 ml of 60% aqueous methanol was added to the concentrate, and 100 μl of the resulting solution was taken and subjected to high-performance liquid chromatography to determine the amount of 5-HETE (5-hydroxy-eicosatetraenoic acid). Determination of 5-HETE was made through measurement of an absorption at 237 nm with a UV absorption monitor.
The 5-HETE production inhibitory effect (IE) was expressed by [formula] wherein a is a peak height or peak area corrected by the peak for the internal reference when the phenol compound is not contained; b is a peak height or peak area corrected by the peak for the internal reference when the phenol compound is contained.

- inhibition at 10 µM ([2]; 10^-5 M): 96%
- inhibition at 1 µM ([2]; 10^-6 M): 22%
Structure (SMILES): Cc1c(C)c(Br)c(C)c(C(CCCCCC(=O)O)c2ccc(F)cc2)c1O (stereo not drawn) [Compound 12, 7-(5-bromo-2-hydroxy-3,4,6-trimethylphenyl)-7-(4-fluorophenyl)heptanoic acid]
- inhibition in vivo at 0.31 mg/kg [1]: 96%
